The values that follow come from patent US10166237B2, “Compounds and methods for inducing chondrogenesis” (The Scripps Research Institute, priority 2011, dated 2019).

One data set deals with T1, FLNA (Homo sapiens, UniProt P21333).
T1 construct: endogenous in cells; host or cells: hMSCs (primary human mesenchymal stem cells)
The data set is described as follows: photo-crosslinking of biotin-PRO1-azide in hMSCs, competition with PRO1, proteomics. The format is binding. On the procedure: To identify the interaction of PRO1 and FLNA, 5 μM biotin-PRO1-azide was added to hMSCs in the differentiation media in the absence or presence of a 50-fold molar excess of PRO1 and incubated for 30 min. 254-nm light was applied to the cells for another 30 min. Cells were lysed in lysis buffer (20 mM Tris-HCl, pH=7.4, 150 mM NaCl, 1 mM EDTA, 1 mM DTT, 0.5% v/v Triton X-100, protease inhibitor cocktail), passed through 26 1/2 gauge needles 20 times, and centrifuged at 12,000 rpm for 30 min. The supernatant was subjected to ammonium sulfate precipitation fractionation. Fractions were analyzed by Western blotting using an anti-biotin antibody (FIG. 6A). Fractions containing 20-40% ammonium sulfate were precipitated using trichloroacetic acid (TCA) and resuspended in isoelectric focusing sample buffer and subjected to 2D SDS-PAGE and Western blotting against biotin. Proteins specifically labeled by biotin-PRO1-azide were recognized, and the corresponding spots on a parallel gel visualized by silver staining were excised. These proteins were identified by mass spectrometry proteomics analysis. hMSCs were treated in monolayer or pellet culture (as indicated in FIG. 6B-6C) for 24-72 hrs. 15 μg of protein was separated by SDS-PAGE and hMSCs were fractionated (as indicated in FIG. 6B-6C) into cytosolic and nuclear fractions or monomeric and filamentous components as previously described.

Another data set has as its system female 129SVE mice. The data set is described as follows: surgically induced cartilage injury (ACL, MCL, MMTL transection). The format is in vivo. The conditions noted are these: IA injection days 7, 14 and 21. On the procedure:
Surgical transection of the ACL, MCL, and MMTL was performed to induce cartilage injury in female 129SVE mice. Mice were dosed by IA injection on days 7, 14 and 21. The medial tibial plateaus from representative mice were assessed on day 28 (FIG. 4A). Histomorphometric analyses and grading by two blinded observers using a modified OARSI scoring system determined the joint severity scores of the […] tibial plateau on day 28 after surgical induction (FIG. 4B). At 28 days, peripheral blood was collected by retro-orbital bleeding and the serum was used to determine the cleaved type II collagen fragments (CTX-II levels) by ELISA (Serum Pre-Clinical Cartilaps, Immunodiagnostic Systems, Fountain Hills, Ariz.). n=15/treatment group (FIG. 4C).

For data set [1] the following is noted: in vivo, 0.05 mg/kg.
Data set [2] has as its system bovine cartilage explants. The data set is described as follows: cytokine-induced GAG release from cartilage explants ex vivo. The format is cell-based. To be noted: TNFα and oncostatin M, 72 hours; up to. The source says:
In the screen, hMSCs were used as a surrogate to future targeting of the resident MSCs with the cartilage joint. It was in that setting upon which we identified PRO1. In a joint injury, the primary cell type a therapeutic would have contact with is the chondrocyte. Although cartilage or chondrocyte-targeted screening has not lead to the development of a successful drug modifying osteoarthritis drug (DMOAD) to date, it is believed that a stem cell-based therapeutic would protect and even repair the existing chondrocytes. Therefore, protection of the articular chondrocytes and cartilage from a mature bovine knee was assessed. PRO1 and its analogues were incubated with primary bovine chondrocytes or cartilage explants cultures grown in the presence of TNFα and oncostatin M to mimic the cytokine-induced damage that can occur during OA. In the presence of the cytokine cocktail, in vitro cultured primary chondrocytes released 4-5 fold more nitric oxide (NO) than the untreated chondrocytes (50 μM vs 10 μM) as measured by the Greiss reaction. […]
Primary hMSCs were plated (10,000/well) in 384-well plates and cultured for 18 days. […] 20 μl of the supernatant was mixed with 20 μl of the Greiss reagent and quantitated at 540 nm as described by the Promega kit instructions. […]

The subject of another data set is C57BL/10 mice. The data set is described as follows: collagenase VII-induced knee joint damage. The format is in vivo. To be noted: 10 μM intra-articular on days 7 and 21. How it is done: IA injections of C57BL/10 mice with collagenase VII (12 U/knee) induced joint damage through digestion of the ligament of the knee. The mice were dosed intra-articularly on days 7 and 21 with 10 μM PRO1 or PBS. On day 56 the mice were euthanized for histopathological analyses. Parafin blocks were sectioned at 5 um and stained with Safranin O, and representative data was collected for the PBS- and PRO1-treated mice (FIG. 3A). The total medial tibial plateau joint score was determined by two blinded observers and averaged to represent the data shown here using the OARSI scoring system (FIG. 3B). Peripheral blood was collected from each mouse by retro-orbital bleeding on day 1, day 13 and day 56. The circulating COMP was determined by the Animal COMP ELISA kit according to the manufacturer's instructions (MDBioproducts, St Paul, Minn.). Pooled data, 10 mice/group (FIG. 3C).

T1 sequence (P21333 whole entry): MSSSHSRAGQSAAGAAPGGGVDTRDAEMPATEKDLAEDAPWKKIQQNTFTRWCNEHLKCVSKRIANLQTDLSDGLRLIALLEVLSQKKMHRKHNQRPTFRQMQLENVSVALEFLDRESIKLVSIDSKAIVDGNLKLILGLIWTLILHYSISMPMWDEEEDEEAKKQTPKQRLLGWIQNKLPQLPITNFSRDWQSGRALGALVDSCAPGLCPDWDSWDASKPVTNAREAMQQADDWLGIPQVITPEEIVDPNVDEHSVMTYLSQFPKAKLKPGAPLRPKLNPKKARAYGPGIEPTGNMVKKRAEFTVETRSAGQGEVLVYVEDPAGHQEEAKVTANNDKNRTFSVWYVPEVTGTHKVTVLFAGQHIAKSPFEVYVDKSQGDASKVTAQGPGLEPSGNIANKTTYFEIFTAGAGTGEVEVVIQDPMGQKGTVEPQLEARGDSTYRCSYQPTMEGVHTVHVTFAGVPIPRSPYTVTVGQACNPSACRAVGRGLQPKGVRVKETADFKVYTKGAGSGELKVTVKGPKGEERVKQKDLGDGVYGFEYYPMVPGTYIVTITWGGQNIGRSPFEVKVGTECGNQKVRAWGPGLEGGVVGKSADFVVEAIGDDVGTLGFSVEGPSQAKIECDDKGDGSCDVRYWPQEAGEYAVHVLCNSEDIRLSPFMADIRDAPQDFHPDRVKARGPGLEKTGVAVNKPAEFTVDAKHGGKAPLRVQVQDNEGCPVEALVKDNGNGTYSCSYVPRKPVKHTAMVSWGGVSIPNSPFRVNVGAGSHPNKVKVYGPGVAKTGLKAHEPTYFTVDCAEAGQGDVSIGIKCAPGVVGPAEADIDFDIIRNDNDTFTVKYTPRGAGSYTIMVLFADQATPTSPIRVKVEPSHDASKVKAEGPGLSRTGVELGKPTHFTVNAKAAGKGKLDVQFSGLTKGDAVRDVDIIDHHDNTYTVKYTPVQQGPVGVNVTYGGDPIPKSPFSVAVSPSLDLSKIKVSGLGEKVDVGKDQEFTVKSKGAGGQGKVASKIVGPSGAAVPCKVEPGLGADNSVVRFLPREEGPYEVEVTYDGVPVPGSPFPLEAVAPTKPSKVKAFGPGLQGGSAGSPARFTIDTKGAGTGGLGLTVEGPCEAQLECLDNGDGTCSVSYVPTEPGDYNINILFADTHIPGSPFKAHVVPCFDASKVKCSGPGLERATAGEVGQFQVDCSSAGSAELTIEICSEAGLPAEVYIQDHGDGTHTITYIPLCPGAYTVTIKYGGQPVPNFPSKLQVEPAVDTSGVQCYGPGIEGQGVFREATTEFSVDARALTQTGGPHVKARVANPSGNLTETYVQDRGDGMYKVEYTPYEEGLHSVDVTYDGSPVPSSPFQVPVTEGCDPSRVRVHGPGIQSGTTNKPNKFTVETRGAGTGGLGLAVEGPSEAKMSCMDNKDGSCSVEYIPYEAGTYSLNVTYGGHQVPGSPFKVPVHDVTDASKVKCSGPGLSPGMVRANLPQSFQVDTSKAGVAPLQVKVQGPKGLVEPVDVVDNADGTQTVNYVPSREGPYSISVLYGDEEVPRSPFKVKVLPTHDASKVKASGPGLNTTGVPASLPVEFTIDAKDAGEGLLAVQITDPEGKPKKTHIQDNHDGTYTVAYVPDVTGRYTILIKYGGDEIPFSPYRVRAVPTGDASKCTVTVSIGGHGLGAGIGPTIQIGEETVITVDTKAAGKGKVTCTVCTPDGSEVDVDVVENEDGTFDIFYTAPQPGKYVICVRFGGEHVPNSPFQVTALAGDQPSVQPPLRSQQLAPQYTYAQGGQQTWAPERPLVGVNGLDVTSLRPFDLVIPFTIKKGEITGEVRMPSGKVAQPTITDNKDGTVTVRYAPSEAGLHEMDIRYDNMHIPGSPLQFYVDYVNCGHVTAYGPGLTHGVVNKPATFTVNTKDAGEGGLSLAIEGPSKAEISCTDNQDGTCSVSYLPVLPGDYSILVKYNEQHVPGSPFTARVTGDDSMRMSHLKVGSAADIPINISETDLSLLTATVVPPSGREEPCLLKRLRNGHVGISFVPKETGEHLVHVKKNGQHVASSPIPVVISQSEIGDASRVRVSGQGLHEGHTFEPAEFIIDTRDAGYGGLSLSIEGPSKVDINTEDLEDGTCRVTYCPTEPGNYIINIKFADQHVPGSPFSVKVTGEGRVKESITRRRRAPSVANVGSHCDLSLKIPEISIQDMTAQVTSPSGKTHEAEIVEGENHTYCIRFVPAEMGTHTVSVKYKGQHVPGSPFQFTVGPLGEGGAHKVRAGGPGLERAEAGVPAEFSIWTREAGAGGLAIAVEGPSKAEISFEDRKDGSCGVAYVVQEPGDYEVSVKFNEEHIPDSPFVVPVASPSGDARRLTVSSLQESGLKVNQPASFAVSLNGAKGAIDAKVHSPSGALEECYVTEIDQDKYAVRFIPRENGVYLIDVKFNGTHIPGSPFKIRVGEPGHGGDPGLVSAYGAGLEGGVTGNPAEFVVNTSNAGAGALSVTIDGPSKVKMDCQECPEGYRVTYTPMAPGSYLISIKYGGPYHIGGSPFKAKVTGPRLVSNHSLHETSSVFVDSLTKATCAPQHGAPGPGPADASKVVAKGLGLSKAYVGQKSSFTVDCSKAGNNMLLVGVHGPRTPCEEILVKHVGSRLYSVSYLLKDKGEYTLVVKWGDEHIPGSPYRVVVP

As to `O=C(O)c1ccccc1C(=O)Nc1ccc(-c2ccccc2)cc1` [AKT], the “interaction with FLNA” value on FLNA is on record as “Interacts with FLNA”. Also, the results for the cartilage damage entry with female 129SVE mice (day 28) and in the data set on C57BL/10 mice (day 56) were “Protection” and “Reduced Cartilage Damage”, respectively. Moreover, the “CTX-II peptide in plasma” value in the data set on female 129SVE mice (day 28, ELISA) is reported as “Inhibition”. In addition, the “Plasma Conc.” value in data set [1] is reported as “BLQ”. Further, the “reduction of cytokine-induced release of glycosaminoglycans (GAG)” value in data set [2] was “up to 60%”. For the same compound, the “circulating COMP levels” value in the data set on C57BL/10 mice (ELISA) is “Reduced”.
